Reference: patent US12258331B2, “Pyrimidine derivative and preparation process and use thereof” (Guangdong Lewwin Pharmaceutical Research Institute Co., Ltd., priority 2018, dated 2025)

Tests used:
[1] = Pharmacokinetic properties after intravenous injection and intragastric administration; format: in vivo, mice
Description: Shanghai Medicilon Bio-pharmaceutical Co., LTD was commissioned to research pharmacokinetic properties of the novel pyrimidine derivatives (R)-14, (R)-5b, and Tepotinib in mice. The specific processes are: An appropriate amount of the compounds (R)-14, (R)-5b and Tepotinib were accurately weighed and dissolved in a solution containing 2% Solutol and 98% 100 mM sodium acetate to obtain a clear dosing solution at a concentration of 2 mg/mL for intravenous administration. An appropriate amount of the compounds (R)-14, (R)-5b were accurately weighed and dissolved in 5% Solutol and 95% saline to obtain a clear dosing solution at a concentration of 5 mg/mL. An appropriate amount of Tepotinib was accurately weighed and dissolved in 5% Solutol, 5% DMSO and 90% saline, for oral administration and injection. Blood was collected from the test […] via jugular vein puncture, about 0.3 mL for per sample, and using heparin sodium as the anticoagulant. The time points for blood sampling were as below (including intravenous injection and oral administration): before administration, 5 min, 15 min, 30 min, 1 h, 2 h, 4 h, 8 h and 24 h post administration. After collection, blood samples were placed on ice, and plasma was separated by centrifugation within 30 minutes (centrifugation conditions: 8000 rpm, 6 minutes, 2-8° C.). The collected plasma was stored at −80° C. before analysis. Plasma samples were all analyzed qualitatively and quantitatively by LC-MS/MS. The dosage and ways for administration were intravenous injection (IV, 2 mg/kg) and intragastric administration (PO, 5 mg/kg) respectively, with the pharmacokinetic data shown in Table 3.

[2] = Metabolic stability in rat liver microsomes; settings: 37° C.
Description: Firstly, a SD rat (200-300 g) was fasted for 12 hours, and then infused rapidly with normal saline. Liver was taken out from the rat, from which liver microsomes were extracted at 0-4° C., ready for use after calibrating the concentration of liver microsomes. At 37° C., liver microsomes were incubated in combination with a certain concentration of compounds and auxiliary reagents for a period of time. The reaction was then quenched with acetonitrile.

[3] = Sprague-Dawley, mouse, in vivo, iv, 2 mg/kg
[4] = Sprague-Dawley, mouse, in vivo, po, 5 mg/kg

[2H]C([2H])([2H])C([2H])(c1cccc(-c2ncc(OCC3CCN(C)CC3)cn2)c1)n1nc(-c2cccc(C#N)c2)ccc1=O (stereo in doubt) [(R)-14]
AUC0-∞ [1, 3]: 2.44164 µg·h/mL
CL [1, 3]: 0.81912 L/h/kg
T1/2 [1, 3]: 4.48 h
AUC0-∞ [1, 4]: 6.30937 µg·h/mL
Tmax [1, 4]: 4 h

C[C@H](c1cccc(-c2ncc(OCC3CCN(C)CC3)cn2)c1)n1nc(-c2cccc(C#N)c2)ccc1=O [(R)-5b]
AUC0-∞ [1, 3]: 2.14391 µg·h/mL
CL [1, 3]: 0.93287 L/h/kg
T1/2 [1, 3]: 4.23 h
AUC0-∞ [1, 4]: 4.58023 µg·h/mL

CN1CCC(COc2cnc(-c3cccc(Cn4nc(-c5cccc(C#N)c5)ccc4=O)c3)nc2)CC1 [Tepotinib]
T1/2 (metabolic half-life in liver microsomes) [2]: 0.345 h
AUC0-∞ ([1]; IV 2 mg/kg): 0.56274 µg·h/mL
CL ([1]; IV 2 mg/kg): 3.55403 L/h/kg
T1/2 ([1]; IV 2 mg/kg): 1.79 h
Vz ([1]; IV 2 mg/kg): 9.17868 L/kg
AUC0-∞ ([1]; PO 5 mg/kg): 0.98169 µg·h/mL
Cmax ([1]; PO 5 mg/kg): 0.21123 µg/mL
Tmax ([1]; PO 5 mg/kg): 1 h
F % (bioavailability) ([1]; PO 5 mg/kg vs IV 2 mg/kg): 67.77%
